# According to patent US5741811A, “Polythiophene anti-tumor agents” (Purdue Research Foundation, priority 1996, dated 1998):
# Where two headings read alike, the source gives them in different places.
# What was measured:
# Assay in all cases: NCI human tumor cell line panel growth inhibition
# Format in all cases: cell-based
# [1] = tested on: A549/ATCC lung cancer cells; conditions: Homo sapiens, read-out: Log10 GI50 (converted)
# ACHN renal cancer cells = conditions: read-out: Log10 GI50 (converted)
# [2] = tested on: RXF-631 renal cancer cells; conditions: Homo sapiens, read-out: Log10 GI50 (converted)
# SF-268 CNS cancer cells = conditions: read-out: Log10 GI50 (converted)
# U251 CNS cancer cells = conditions: Homo sapiens, U-251, read-out: Log10 GI50 (converted)
# [3] = tested on: NCI-H322M lung cancer cells; conditions: Homo sapiens, read-out: Log10 GI50 (converted)
# LOX IMVI melanoma cells = conditions: read-out: Log10 GI50 (converted)
# [4] = tested on: NCI-H460 lung cancer cells; conditions: Homo sapiens, read-out: Log10 GI50 (converted)
# SK-MEL-2 melanoma cells = conditions: read-out: Log10 GI50 (converted)
# M-14 melanoma cells = conditions: M14, read-out: Log10 GI50 (converted)
# [5] = tested on: HCC-2998 colon cancer cells; conditions: Homo sapiens, read-out: Log10 GI50 (converted)
# [6] = tested on: CAKI-1 renal cancer cells; conditions: Homo sapiens; CAKI-1, renal cancer; read-out: Log10 GI50 (converted)
# [7] = tested on: RXF-393 renal cancer cells; conditions: Homo sapiens, read-out: Log10 GI50 (converted)
# [8] = tested on: OVCAR-5 ovarian cancer cells; conditions: Homo sapiens, read-out: Log10 GI50 (converted)
# 786-0 renal cancer cells = conditions: read-out: Log10 GI50 (converted)
# [9] = tested on: NCI-H522 lung cancer cells; conditions: read-out: Log10 GI50 (converted)
# UACC-62 melanoma cells = conditions: Homo sapiens, read-out: Log10 GI50 (converted)
# HT29 colon cancer cells = conditions: Homo sapiens, HT-29, read-out: Log10 GI50 (converted)
# [10] = tested on: LXPL-529 lung cancer cells; conditions: Homo sapiens, read-out: Log10 GI50 (converted)
# MALME-3M melanoma cells = conditions: read-out: Log10 GI50 (converted)
# [11] = tested on: NCI-H23 lung cancer cells; conditions: read-out: Log10 GI50 (converted)
# [12] = tested on: OVCAR-3 ovarian cancer cells; conditions: Homo sapiens; OVCAR-3, ovarian cancer; read-out: Log10 GI50 (converted)
# [13] = tested on: NCI-H226 lung cancer cells; conditions: Homo sapiens, read-out: Log10 GI50 (converted)
# [14] = tested on: IGROV-1 ovarian cancer cells; conditions: Homo sapiens, read-out: Log10 GI50 (converted)
# UO-31 renal cancer cells = conditions: read-out: Log10 GI50 (converted)
# DLD-1 colon cancer cells = conditions: Homo sapiens, read-out: Log10 GI50 (converted)
# EKVX lung cancer cells = conditions: read-out: Log10 GI50 (converted)
# TK-10 renal cancer cells = conditions: Homo sapiens, read-out: Log10 GI50 (converted)
# HOP-18 lung cancer cells = conditions: Homo sapiens, read-out: Log10 GI50 (converted)
# A-498 renal cancer cells = conditions: Homo sapiens, A498, read-out: Log10 GI50 (converted)
# [15] = tested on: KM20L2 colon cancer cells; conditions: Homo sapiens, KM-20L2, read-out: Log10 GI50 (converted)
# UACC-257 melanoma cells = conditions: Homo sapiens, read-out: Log10 GI50 (converted)
# SN12C renal cancer cells = conditions: read-out: Log10 GI50 (converted)
# [16] = tested on: COLO-205 colon cancer cells; conditions: Homo sapiens
# HOP-62 lung cancer cells = conditions: Homo sapiens, read-out: Log10 GI50 (converted)
# SF-295 CNS cancer cells = conditions: read-out: Log10 GI50 (converted)
# SNB-75 CNS cancer cells = conditions: Homo sapiens, read-out: Log10 GI50 (converted)
# [17] = tested on: SK-OV-3 ovarian cancer cells; conditions: Homo sapiens, read-out: Log10 GI50 (converted)
# [18] = tested on: HCT-15 colon cancer cells; conditions: Homo sapiens, read-out: Log10 GI50 (converted)
# [19] = tested on: OVCAR-8 ovarian cancer cells; conditions: Homo sapiens, read-out: Log10 GI50 (converted)
# Method: (§1) The first screen measures the cytotoxicity against a panel of sixty different human tumor cell lines. This assay provides data regarding the general cytotoxicity of an individual compound.
# (§2) The length of a bar is indicative of differential cytotoxicity against a specific type of tumor cells or tumor panels.
# (§3) The antitumor cytotoxicity of the thiophene compounds tested in the first two in vitro assays was measured by a microculture assay using either 3-(4,5-dimethylthiazol-2-yl)-2,5-diphenyltetrazolium bromide (MTT) or sulforhodamine B (SRB). [M. R. Boyd in "Principles and Practices of Oncology," V. T. DeVita, Jr., S. Hellman and S. A. Rosenberg (Eds.), Vol. 3, PPO Updates, Number 10, 1989.] This assay has an advantage over in vivo assay in that results are obtained within a week as opposed to several months. The assay was carried out in 96-well microtiter plates. The MTT assay is based on the production of a dark blue formazan product by dehydrogenase in the mitochondria of live tumor cells after exposure to drug for 6 days [M. C. Alley, D. A. Scudiero, A. Monks, M. L. Hursey, M. J. Czerwinski, D. L. Fine, B. J. Abbott, J. G. Mayo, R. H. Shoemaker and M. R. Boyd, Cancer Res., 48, 589, 1988.] Thus, only live cells are stained and can be measured at 570 nm. The SRB assay is based on the binding of the anionic group to the basic amino acid residues of cellular proteins after exposure of tumor cells to drug for 2 days [P. Skehan, R. Storeng, D. Scudiero, A. Monks, J. McMahon, D. Vistica, J. T. Warren, H. Bohesch, S. Kenney and M. R. Boyd, J. Nat. Cancer Inst., 82, 1107, 1990.] Thus, the total protein (viability) can be measured at 564 nm.
# [20] = tested on: SW-620 colon cancer cells; conditions: Homo sapiens, read-out: Log10 GI50 (converted)
# Method: as §1, §2, §3
# SNB-19 CNS cancer cells = conditions: Homo sapiens, read-out: Log10 GI50 (converted)
# MCF7 breast cancer cells = conditions: read-out: Log10 GI50 (converted)
# Description: (§4) The cytotoxic activity of the present polythiophene compounds have been measured utilizing three different assays or screens. The first screen measures the cytotoxicity against a panel of sixty different human tumor cell lines. This assay provides data regarding the general cytotoxicity of an individual compound. In particular this type of assay is useful in identifying compounds which have enhanced cytotoxic activity against slow growing tumors as compared to faster growing tumor cells such as leukemia tumor cell lines. The identification of such compounds is critical since previously identified antitumor agents have low cytotoxic activity against slower growing tumors. […] The specificity of a cytotoxic compound for tumor cell lines relative to normal cells is an important characteristic of an effective antitumor agent.
# as §2, §3
# [21] = tested on: DU-145 prostate cancer cells; conditions: read-out: Log10 GI50 (converted)
# Description: as §4, §2, §3
# [22] = tested on: PC-3 prostate cancer cells; conditions: read-out: Log10 GI50 (converted)
# Description: as §4, §2, §3
# SK-MEL-28 melanoma cells = conditions: read-out: Log10 GI50 (converted)
# Description: as §4, §2, §3
# HOP-92 lung cancer cells = conditions: Homo sapiens, read-out: Log10 GI50 (converted)
# Description: as §4, §2, §3
# [23] = tested on: MDA-N breast cancer cells; conditions: read-out: Log10 GI50 (converted)
# Description: as §4, §2, §3
# KM12 colon cancer cells = conditions: Homo sapiens, read-out: Log10 GI50 (converted)
# Description: as §4, §2, §3
# [24] = tested on: MDA-MB-231/ATCC breast cancer cells; conditions: read-out: Log10 GI50 (converted)
# Description: as §4, §2, §3
# [25] = tested on: OVCAR-4 ovarian cancer cells; conditions: Homo sapiens, read-out: Log10 GI50 (converted)
# Description: as §4, §2, §3
# SK-MEL-5 melanoma cells = conditions: read-out: Log10 GI50 (converted)
# Description: as §4, §2, §3
# [26] = tested on: HCT-116 colon cancer cells; conditions: Homo sapiens, read-out: Log10 GI50 (converted)
# [27] = tested on: T-47D breast cancer cells; conditions: T47D, read-out: Log10 GI50 (converted)
# Method: The assay was carried out in 96-well microtiter plates. The MTT assay is based on the production of a dark blue formazan product by dehydrogenase in the mitochondria of live tumor cells after exposure to drug for 6 days [M. C. […] The SRB assay is based on the binding of the anionic group to the basic amino acid residues of cellular proteins after exposure of tumor cells to drug for 2 days [P. Skehan, R. Storeng, D. Scudiero, A. Monks, J. McMahon, D. Vistica, J. T. Warren, H. Bohesch, S. Kenney and M. R. Boyd, J. Nat.
Compound,GI50 (SF-268 CNS cancer cells) [µM],GI50 (U251 CNS cancer cells) [µM],GI50 [3] [µM],GI50 [4] [µM],GI50 (M-14 melanoma cells) [µM],GI50 [5] [µM],GI50 [6] [µM],GI50 [7] [µM],GI50 [8] [µM],GI50 (786-0 renal cancer cells) [µM],GI50 (HT29 colon cancer cells) [µM],GI50 (MALME-3M melanoma cells) [µM],GI50 [11] [µM],GI50 [12] [µM],GI50 [14] [µM],GI50 (TK-10 renal cancer cells) [µM],GI50 (A-498 renal cancer cells) [µM],GI50 (UACC-257 melanoma cells) [µM],GI50 (HOP-62 lung cancer cells) [µM],GI50 (SF-295 CNS cancer cells) [µM],other results
CC(=O)OCc1ccc(-c2ccc(-c3cccs3)s2)s1,24.5,< 0.01,19.5,1.51,39.8,24.5,0.0182,18.2,26.3,18.6,30.2,32.4,19.5,0.0257,5.01,0.12,0.0437,0.0933,24,18.2,"GI50 [1]: 6.61 µM; GI50 (ACHN renal cancer cells): 17.8 µM; GI50 [2]: < 0.01 µM; GI50 (LOX IMVI melanoma cells): 24 µM; GI50 (SK-MEL-2 melanoma cells): 72.4 µM; GI50 [9]: 13.2 µM; GI50 (UACC-62 melanoma cells): 17 µM; GI50 [10]: < 0.01 µM; GI50 [13]: 0.324 µM; GI50 (UO-31 renal cancer cells): 18.6 µM; GI50 (DLD-1 colon cancer cells): < 0.01 µM; GI50 (EKVX lung cancer cells): 24.5 µM; GI50 (HOP-18 lung cancer cells): 2.34 µM; GI50 [15]: 0.132 µM; GI50 (SN12C renal cancer cells): 28.8 µM; GI50 ([16]; COLO-205, colon cancer, read-out: Log10 GI50 (converted)): 0.437 µM; GI50 (SNB-75 CNS cancer cells): < 0.01 µM; GI50 [17]: 91.2 µM; GI50 [18]: 50.1 µM"
OCc1ccc(-c2ccc(-c3ccsc3)s2)s1 [drawing 37],53.7,10.7,16.2,25.1,42.7,0.977,0.0229,20.4,0.417,57.5,13.8,38.9,24,0.158,0.219,0.204,0.115,0.191,20.4,35.5,"GI50 [19]: 57.5 µM; GI50 [20]: 47.9 µM; GI50 (SNB-19 CNS cancer cells): 33.1 µM; GI50 (MCF7 breast cancer cells): 0.257 µM; GI50 [21]: 66.1 µM; GI50 [22]: 51.3 µM; GI50 (SK-MEL-28 melanoma cells): 36.3 µM; GI50 (HOP-92 lung cancer cells): 38.9 µM; GI50 [23]: 0.501 µM; GI50 (KM12 colon cancer cells): 83.2 µM; GI50 [24]: 28.2 µM; GI50 [25]: 25.1 µM; GI50 (SK-MEL-5 melanoma cells): 41.7 µM; GI50 [26]: 0.363 µM; GI50 ([16]; COLO 205, read-out: Log10 GI50 (converted)): 0.912 µM; GI50 [27]: 0.339 µM; GI50 (SNB-75 CNS cancer cells): 30.9 µM; GI50 [18]: 58.9 µM"
